Measurements: paper PMC9516332 (Frontiers in Oncology, 2022)
Where two headings read alike, the source gives them in different places.

How the values were obtained:
134 cancer cell lines = assay: Cell viability assay (ATPlite, 72 hours), IC50 on cancer cell line panel
AP-1060 (ETV6-NTRK3) = assay: Cell viability assay; conditions: read-out: IC50 in cell proliferation assay

IC50 (134 cancer cell lines; Homo sapiens, MOLT-4, read-out: IC50 in cell proliferation assay, MOLT-4 cell line): 1.67 µM
IC50 (134 cancer cell lines; Homo sapiens, MV4-11, read-out: IC50 in cell proliferation assay, MV4-11 cell line (FLT3 ITD)): 0.167 µM
IC50 (134 cancer cell lines; Homo sapiens, MeWo, read-out: IC50 in cell proliferation assay, MeWo cell line): 5.53 µM
IC50 (134 cancer cell lines; Homo sapiens, NCCIT, read-out: IC50 in cell proliferation assay, NCC-IT cell line): 1.58 µM
IC50 (134 cancer cell lines; Homo sapiens, NCI-H82, read-out: IC50 in cell proliferation assay, cell line NCI-H82): 3.23 µM
IC50 (134 cancer cell lines; Homo sapiens, NCI-H460, read-out: IC50 in cell proliferation assay, NCI-H460 cell line): 4.27 µM
IC50 (134 cancer cell lines; Homo sapiens, NCI-H661, read-out: IC50 in cell proliferation assay, NCI-H661 cell line): 8.68 µM
IC50 (134 cancer cell lines; Homo sapiens, NCI-H716, read-out: IC50 in cell proliferation assay, cell line NCI-H716 (FGFR2-COL14A1)): 0.262 µM
IC50 (134 cancer cell lines; Homo sapiens, NCI-H1650, read-out: IC50 in cell proliferation assay, NCI-H1650 cell line (EGFR exon19del)): 7.36 µM
IC50 (134 cancer cell lines; Homo sapiens, NCI-H1975, read-out: IC50 in cell proliferation assay, NCI-H1975 cell line (EGFR p.L858R + p.T790M)): 22.4 µM
IC50 (134 cancer cell lines; Homo sapiens, NCI-H2228, read-out: IC50 in cell proliferation assay, NCI-H2228 cell line (EML4-ALK)): 10.2 µM
IC50 (134 cancer cell lines; Homo sapiens, OVCAR-3, read-out: IC50 in cell proliferation assay, cell line OVCAR-3): 5.67 µM
IC50 (134 cancer cell lines; Homo sapiens, PFSK-1, read-out: IC50 in cell proliferation assay, cell line PFSK-1): > 31.6 µM
IC50 (134 cancer cell lines; Homo sapiens, RL95-2, read-out: IC50 in cell proliferation assay, cell line RL95-2 (EGFR p.A289V)): 2.28 µM
IC50 (134 cancer cell lines; Homo sapiens, RPMI-7951, read-out: IC50 in cell proliferation assay, cell line RPMI-7951 (BRAF p.V600E)): 5.59 µM
IC50 (134 cancer cell lines; Homo sapiens, RS4-11, read-out: IC50 in cell proliferation assay, cell line RS4;11): 1.63 µM
IC50 (134 cancer cell lines; Homo sapiens, Rec1, read-out: IC50 in cell proliferation assay, cell line REC-1): 7.32 µM
IC50 (134 cancer cell lines; Homo sapiens, SHP77, read-out: IC50 in cell proliferation assay, cell line SHP-77): 8.18 µM
IC50 (134 cancer cell lines; Homo sapiens, SK-BR-3, read-out: IC50 in cell proliferation assay, cell line SK-BR-3 (ERBB2 amplification)): 22.6 µM
IC50 (134 cancer cell lines; Homo sapiens, SK-N-AS, read-out: IC50 in cell proliferation assay, cell line SK-N-AS): 3.81 µM
IC50 (134 cancer cell lines; Homo sapiens, SK-N-FI, read-out: IC50 in cell proliferation assay, cell line SK-N-FI): 4 µM
IC50 (134 cancer cell lines; Homo sapiens, SK-N-MC, read-out: IC50 in cell proliferation assay, cell line SK-N-MC): 3.28 µM
IC50 (134 cancer cell lines; Homo sapiens, SK-N-SH, read-out: IC50 in cell proliferation assay, cell line SK-N-SH (ALK p.F1174L)): 2.59 µM
IC50 (134 cancer cell lines; Homo sapiens, SNU-5, read-out: IC50 in cell proliferation assay, cell line SNU-5 (MET amplification)): > 31.6 µM
IC50 (134 cancer cell lines; Homo sapiens, SNU-16, read-out: IC50 in cell proliferation assay, cell line SNU-16 (FGFR2 amplification)): 0.304 µM
IC50 (134 cancer cell lines; Homo sapiens, SNU-C2B, read-out: IC50 in cell proliferation assay, cell line SNU-C2B (EGFR p.R165Q)): > 31.6 µM
IC50 (134 cancer cell lines; Homo sapiens, SU-DHL-1, read-out: IC50 in cell proliferation assay, cell line SU-DHL-1 (NPM1-ALK)): 2.76 µM
IC50 (134 cancer cell lines; Homo sapiens, SU-DHL-6, read-out: IC50 in cell proliferation assay, cell line SU-DHL-6): 4.61 µM
IC50 (134 cancer cell lines; Homo sapiens, SUP-T1, read-out: IC50 in cell proliferation assay, cell line SUP-T1): 2.33 µM
IC50 (134 cancer cell lines; Homo sapiens, SW48, read-out: IC50 in cell proliferation assay, cell line SW48 (EGFR p.G719S)): 2.74 µM
IC50 (134 cancer cell lines; Homo sapiens, SW480, read-out: IC50 in cell proliferation assay, cell line SW480): 4.03 µM
IC50 (134 cancer cell lines; Homo sapiens, SW626, read-out: IC50 in cell proliferation assay, cell line SW626): > 31.6 µM
IC50 (134 cancer cell lines; Homo sapiens, SW780, read-out: IC50 in cell proliferation assay, cell line SW780 (FGFR3-BAIAP2L1)): 1.95 µM
IC50 (134 cancer cell lines; Homo sapiens, SW837, read-out: IC50 in cell proliferation assay, cell line SW837): 3.48 µM
IC50 (134 cancer cell lines; Homo sapiens, SW872, read-out: IC50 in cell proliferation assay, cell line SW872 (BRAF p.V600E)): 5.78 µM
IC50 (134 cancer cell lines; Homo sapiens, SW900, read-out: IC50 in cell proliferation assay, cell line SW900): 5.03 µM
IC50 (134 cancer cell lines; Homo sapiens, SW948, read-out: IC50 in cell proliferation assay, cell line SW948): 3.92 µM
IC50 (134 cancer cell lines; Homo sapiens, SW982, read-out: IC50 in cell proliferation assay, cell line SW982 (BRAF p.V600E)): 3.57 µM
IC50 (134 cancer cell lines; Homo sapiens, SW-620, read-out: IC50 in cell proliferation assay, cell line SW620): 2.62 µM
IC50 (134 cancer cell lines; Homo sapiens, T98G, read-out: IC50 in cell proliferation assay, cell line T98G): 2.69 µM
IC50 (134 cancer cell lines; Homo sapiens, TCC-SUP, read-out: IC50 in cell proliferation assay, cell line TCCSUP): 3.13 µM
IC50 (134 cancer cell lines; Homo sapiens, THP-1, read-out: IC50 in cell proliferation assay, cell line THP-1): > 31.6 µM
IC50 (134 cancer cell lines; Homo sapiens, U2OS, read-out: IC50 in cell proliferation assay, cell line U2OS): 4.78 µM
IC50 (134 cancer cell lines; Homo sapiens, U-87 MG, read-out: IC50 in cell proliferation assay, cell line U-87MG ATCC): > 31.6 µM
IC50 (134 cancer cell lines; Homo sapiens, U-118-MG, read-out: IC50 in cell proliferation assay, cell line U-118MG): 6.34 µM
IC50 (134 cancer cell lines; Homo sapiens, UMUC3, read-out: IC50 in cell proliferation assay, cell line UM-UC-3): 1.3 µM
IC50 (134 cancer cell lines; Hs766T, read-out: IC50 in cell proliferation assay, Hs 766T cell line): 4.97 µM
IC50 (134 cancer cell lines; L-82, read-out: IC50 in cell proliferation assay, L-82 cell line (NPM1-ALK)): 5.23 µM
IC50 (134 cancer cell lines; Rh30, read-out: IC50 in cell proliferation assay, cell line Rh30): 4.03 µM
IC50 (134 cancer cell lines; read-out: IC50 in cell proliferation assay, 11-18 cell line (EGFR p.L858R)): 4.08 µM
IC50 (134 cancer cell lines; read-out: IC50 in cell proliferation assay, Hs 852.T cell line): 5.9 µM
IC50 (134 cancer cell lines; read-out: IC50 in cell proliferation assay, JAR cell line): 4.4 µM
IC50 (134 cancer cell lines; read-out: IC50 in cell proliferation assay, cell line 5637): 4.53 µM
IC50 (134 cancer cell lines; read-out: IC50 in cell proliferation assay, cell line A-388): 9.59 µM
IC50 (134 cancer cell lines; read-out: IC50 in cell proliferation assay, cell line DB): 3.37 µM
IC50 (134 cancer cell lines; read-out: IC50 in cell proliferation assay, cell line DEL (NPM1-ALK)): 3.36 µM
IC50 (134 cancer cell lines; read-out: IC50 in cell proliferation assay, cell line ES-2 (BRAF p.V600E)): > 31.6 µM
IC50 (134 cancer cell lines; read-out: IC50 in cell proliferation assay, cell line PA-1): 1.82 µM
IC50 (134 cancer cell lines; read-out: IC50 in cell proliferation assay, cell line PC-3): 3.85 µM
IC50 (134 cancer cell lines; read-out: IC50 in cell proliferation assay, cell line RD): 6.94 µM
IC50 (134 cancer cell lines; read-out: IC50 in cell proliferation assay, cell line RKO (BRAF p.V600E)): 5.12 µM
IC50 (134 cancer cell lines; read-out: IC50 in cell proliferation assay, cell line RL): 2.06 µM
IC50 (134 cancer cell lines; read-out: IC50 in cell proliferation assay, cell line RT-4 (FGFR3-TACC3)): 1.38 µM
IC50 (134 cancer cell lines; read-out: IC50 in cell proliferation assay, cell line SR (NPM1-ALK)): 2.58 µM
IC50 (134 cancer cell lines; read-out: IC50 in cell proliferation assay, cell line T24): 5.15 µM
IC50 (134 cancer cell lines; read-out: IC50 in cell proliferation assay, cell line TT (RET p.C634W)): 0.019 µM
IC50 (134 cancer cell lines; read-out: IC50 in cell proliferation assay, cell line VA-ES-BJ): 2.79 µM
SMILES: COc1ccc(CN2C3CC2CN(c2ccc(-c4cc(OCC(C)(C)O)cn5ncc(C#N)c45)cn2)C3)cn1 [selpercatinib]
IC50 (AP-1060 (ETV6-NTRK3)): 3.96 µM
